Measurements taken from ChEMBL document CHEMBL2440076, “New triarylpyrazoles as broad-spectrum anticancer agents: design, synthesis, and biological evaluation” (Eur J Med Chem, 2013).

What was measured:
OVCAR-8 [1] = experiment: Growth inhibition of human OVCAR8 cells assessed as cell growth at 10 uM after 48 hrs by sulforhodamine B assay; type: functional; settings: OVCAR-8, 48 h, read-out: Activity
COLO 205 = experiment: Growth inhibition of human COLO205 cells assessed as cell growth at 10 uM after 48 hrs by sulforhodamine B assay; type: functional; settings: COLO 205, 48 h, read-out: Activity
HT-29 = experiment: Growth inhibition of human HT-29 cells assessed as cell growth at 10 uM after 48 hrs by sulforhodamine B assay; type: functional; settings: HT-29, 48 h, read-out: Activity
NCI-H322M [2] = experiment: Growth inhibition of human NCI-H322M cells after 48 hrs by sulforhodamine B assay; type: functional
SNB-19 = experiment: Growth inhibition of human SNB19 cells assessed as cell growth at 10 uM after 48 hrs by sulforhodamine B assay; type: functional; settings: SNB-19, 48 h, read-out: Activity
HCT-116 = experiment: Growth inhibition of human HCT116 cells after 48 hrs by sulforhodamine B assay; type: functional; settings: HCT-116, 48 h
ACHN = experiment: Growth inhibition of human ACHN cells after 48 hrs by sulforhodamine B assay; type: functional
UACC-62 = experiment: Growth inhibition of human UACC62 cells after 48 hrs by sulforhodamine B assay; type: functional; settings: UACC-62, 48 h
K562 = experiment: Growth inhibition of human K562 cells assessed as cell growth at 10 uM after 48 hrs by sulforhodamine B assay; type: functional; settings: K562, 48 h, read-out: Activity
KM12 = experiment: Growth inhibition of human KM12 cells after 48 hrs by sulforhodamine B assay; type: functional, cell-based; settings: KM12, 48 h
M14 = experiment: Growth inhibition of human M14 cells assessed as cell growth at 10 uM after 48 hrs by sulforhodamine B assay; type: functional; settings: M14, 48 h, read-out: Activity
MDA-MB-231 = experiment: Growth inhibition of human MDA-MB-231 cells assessed as cell growth at 10 uM after 48 hrs by sulforhodamine B assay; type: functional; settings: MDA-MB-231, 48 h, read-out: Activity
SR = experiment: Growth inhibition of human SR cells after 48 hrs by sulforhodamine B assay; type: functional
786-0 = experiment: Growth inhibition of human 786-0 cells after 48 hrs by sulforhodamine B assay; type: functional; settings: 786-0, 48 h
[3] = Growth inhibition of human HCC2998 cells after 48 hrs by sulforhodamine B assay; type: functional; settings: HCC 2998, 48 h
MDA-MB-468 = experiment: Growth inhibition of human MDA-MB-468 cells after 48 hrs by sulforhodamine B assay; type: functional, cell-based; settings: MDA-MB-468, 48 h
HOP-92 = experiment: Growth inhibition of human HOP92 cells assessed as cell growth at 10 uM after 48 hrs by sulforhodamine B assay; type: functional; settings: HOP-92, 48 h, read-out: Activity
HCT-15 = experiment: Growth inhibition of human HCT15 cells after 48 hrs by sulforhodamine B assay; type: functional; settings: HCT-15, 48 h
OVCAR-8 [4] = experiment: Growth inhibition of human OVCAR8 cells after 48 hrs by sulforhodamine B assay; type: functional; settings: OVCAR-8, 48 h
SW-620 = experiment: Growth inhibition of human SW620 cells after 48 hrs by sulforhodamine B assay; type: functional; settings: SW-620, 48 h
SF-539 [5] = experiment: Growth inhibition of human SF539 cells after 48 hrs by sulforhodamine B assay; type: functional; settings: SF-539, 48 h
DU-145 [6] = experiment: Growth inhibition of human DU145 cells assessed as cell growth at 10 uM after 48 hrs by sulforhodamine B assay; type: functional; settings: DU-145, 48 h, read-out: Activity
OVCAR-5 = experiment: Growth inhibition of human OVCAR5 cells assessed as cell growth at 10 uM after 48 hrs by sulforhodamine B assay; type: functional; settings: OVCAR-5, 48 h, read-out: Activity
UACC-257 = experiment: Growth inhibition of human UACC257 cells after 48 hrs by sulforhodamine B assay; type: functional; settings: UACC-257, 48 h
A549 = experiment: Growth inhibition of human A549/ATCC cells after 48 hrs by sulforhodamine B assay; type: functional; settings: A549, 48 h
SK-MEL-28 = experiment: Growth inhibition of human SK-MEL-28 cells assessed as cell growth at 10 uM after 48 hrs by sulforhodamine B assay; type: functional; settings: SK-MEL-28, 48 h, read-out: Activity
MCF7 = experiment: Growth inhibition of human MCF7 cells assessed as cell growth at 10 uM after 48 hrs by sulforhodamine B assay; type: functional; settings: MCF7, 48 h, read-out: Activity
SF-539 [7] = experiment: Growth inhibition of human SF539 cells assessed as cell growth at 10 uM after 48 hrs by sulforhodamine B assay; type: functional; settings: SF-539, 48 h, read-out: Activity
[8] = Growth inhibition of human NCI-ADR-RES cells assessed as cell growth at 10 uM after 48 hrs by sulforhodamine B assay; type: functional; settings: read-out: Activity
DU-145 [9] = experiment: Growth inhibition of human DU145 cells after 48 hrs by sulforhodamine B assay; type: functional; settings: DU-145, 48 h
U-251 = experiment: Growth inhibition of human U251 cells after 48 hrs by sulforhodamine B assay; type: functional; settings: U-251, 48 h
NCI-H322M [10] = experiment: Growth inhibition of human NCI-H322M cells assessed as cell growth at 10 uM after 48 hrs by sulforhodamine B assay; type: functional; settings: read-out: Activity
OVCAR-3 = experiment: Growth inhibition of human OVCAR3 cells assessed as cell growth at 10 uM after 48 hrs by sulforhodamine B assay; type: functional; settings: OVCAR-3, 48 h, read-out: Activity
UO-31 = experiment: Growth inhibition of human UO31 cells after 48 hrs by sulforhodamine B assay; type: functional; settings: UO-31, 48 h
[11] = read-out: LC50 (the source's name)

With `COc1cc(-c2nn(-c3cccc(NC(=O)Nc4ccc(Cl)c(C(F)(F)F)c4)c3)cc2-c2ccncc2)ccc1Cl` as the compound, how does the growth at 10 µM (OVCAR-8 [1]) read?
The growth at 10 µM was -19.9%.

What about the growth at 10 µM (COLO 205) of the same compound?
Its growth at 10 µM is -91.6%.

And the growth at 10 µM (HT-29)?
The growth at 10 µM was -0.5%.

What about the GI50 (NCI-H322M [2]) of the same compound?
The GI50 was 1500 nM.

What about the TGI (NCI-H322M [2]) of the same compound?
Its TGI is 13.9 µM.

What about the CC50 (NCI-H322M [2]; [11]) of the same compound?
The CC50 was greater than 32.5 µM.

And the growth at 10 µM (SNB-19)?
The growth at 10 µM was 26.4%.

What about the GI50 (HCT-116) of the same compound?
The GI50 was 1170 nM.

What about the TGI (HCT-116) of the same compound?
The TGI was 4.56 µM.

And the CC50 (HCT-116; [11])?
The CC50 was 21.5 µM.

What about the GI50 (ACHN) of the same compound?
The GI50 was 1100 nM.

What about the TGI (ACHN) of the same compound?
The TGI was 15.6 µM.

And the CC50 (ACHN; [11])?
The CC50 was greater than 32.5 µM.

And the GI50 (UACC-62)?
The GI50 was 737 nM.

What about the LC50 (50% lethal concentration) (UACC-62) of the same compound?
Its LC50 (50% lethal concentration) is 11.6 µM.

What about the TGI (UACC-62) of the same compound?
Its TGI is 2090 nM.

What about the growth at 10 µM (K562) of the same compound?
Its growth at 10 µM is 3.8%.

What about the GI50 (KM12) of the same compound?
The GI50 was 1060 nM.

What about the TGI (KM12) of the same compound?
Its TGI is 3.92 µM.

And the CC50 (KM12; [11])?
The CC50 was 14.9 µM.

And the growth at 10 µM (M14)?
Its growth at 10 µM is -11.7%.

What about the growth at 10 µM (MDA-MB-231) of the same compound?
Its growth at 10 µM is -52.4%.

What about the GI50 (SR) of the same compound?
Its GI50 is 884 nM.

And the TGI (SR)?
Its TGI is 2480 nM.

What about the CC50 (SR; [11]) of the same compound?
Its CC50 is greater than 32.5 µM.

And the GI50 (786-0)?
The GI50 was 1610 nM.

What about the TGI (786-0) of the same compound?
Its TGI is 8.02 µM.

What about the CC50 (786-0; [11]) of the same compound?
The CC50 was greater than 32.5 µM.

What about the GI50 [3] of the same compound?
Its GI50 is 1550 nM.

What about the TGI [3] of the same compound?
Its TGI is 7.3 µM.

And the CC50 [3, 11]?
The CC50 was greater than 32.5 µM.

And the GI50 (MDA-MB-468)?
The GI50 was 833 nM.

What about the IC50 (MDA-MB-468) of the same compound?
The IC50 was 830 nM.

And the TGI (MDA-MB-468)?
The TGI was 4.42 µM.

What about the CC50 (MDA-MB-468; [11]) of the same compound?
Its CC50 is greater than 32.5 µM.

And the growth at 10 µM (HOP-92)?
The growth at 10 µM was -37.5%.

What about the GI50 (HCT-15) of the same compound?
The GI50 was 1230 nM.

What about the LC50 (HCT-15) of the same compound?
The LC50 was greater than 32.5 µM.

And the TGI (HCT-15)?
Its TGI is 7.05 µM.

And the GI50 (OVCAR-8 [4])?
The GI50 was 1050 nM.

What about the TGI (OVCAR-8 [4]) of the same compound?
Its TGI is 5.87 µM.

And the CC50 (OVCAR-8 [4]; [11])?
The CC50 was greater than 32.5 µM.

What about the GI50 (SW-620) of the same compound?
The GI50 was 1290 nM.

And the TGI (SW-620)?
The TGI was 29.9 µM.

And the CC50 (SW-620; [11])?
The CC50 was greater than 32.5 µM.

And the GI50 (SF-539 [5])?
Its GI50 is 1650 nM.

What about the LC50 (concentration killing 50% of cells) (SF-539 [5]) of the same compound?
The LC50 (concentration killing 50% of cells) was 17.5 µM.

And the TGI (SF-539 [5])?
The TGI was 6.34 µM.

What about the growth at 10 µM (DU-145 [6]) of the same compound?
The growth at 10 µM was 20.3%.

What about the growth at 10 µM (OVCAR-5) of the same compound?
Its growth at 10 µM is 35.8%.

What about the GI50 (UACC-257) of the same compound?
The GI50 was 1210 nM.

And the TGI (UACC-257)?
Its TGI is 6.03 µM.

What about the CC50 (UACC-257; [11]) of the same compound?
Its CC50 is 29.2 µM.

What about the GI50 (A549) of the same compound?
Its GI50 is 1020 nM.

And the LC50 (concentration killing 50% of starting cells) (A549)?
The LC50 (concentration killing 50% of starting cells) was greater than 32.5 µM.

What about the TGI (A549) of the same compound?
The TGI was 16.7 µM.

What about the growth at 10 µM (SK-MEL-28) of the same compound?
The growth at 10 µM was 8.8%.

What about the growth at 10 µM (MCF7) of the same compound?
The growth at 10 µM was 0.14%.

And the growth at 10 µM (SF-539 [7])?
The growth at 10 µM was 6.56%.

And the growth at 10 µM [8]?
The growth at 10 µM was -0.86%.

And the GI50 (DU-145 [9])?
The GI50 was 1500 nM.

And the LC50 (DU-145 [9])?
Its LC50 is greater than 32.5 µM.

And the TGI (DU-145 [9])?
The TGI was greater than 32.5 µM.

What about the GI50 (U-251) of the same compound?
Its GI50 is 985 nM.

What about the LC50 (concentration killing 50% of cells) (U-251) of the same compound?
The LC50 (concentration killing 50% of cells) was 24.7 µM.

And the TGI (U-251)?
The TGI was 4.18 µM.

And the growth at 10 µM (NCI-H322M [10])?
Its growth at 10 µM is 32.3%.

What about the growth at 10 µM (OVCAR-3) of the same compound?
The growth at 10 µM was -12.4%.

What about the GI50 (UO-31) of the same compound?
Its GI50 is 865 nM.

And the TGI (UO-31)?
Its TGI is 4.1 µM.

And the CC50 (UO-31; [11])?
The CC50 was greater than 32.5 µM.
